Source: patent US20260262643A1, “HERBICIDAL BENZOXAZINES” (FMC CORPORATION, priority 2022, published 2026)

Test system: barnyardgrass
Experiment: Test A postemergence
Type: in vivo, Echinochloa crusgalli
Conditions: postemergence, 10 days; for Barnyardgrass plant response rating: 125 g ai/ha, 0 to 100 scale, 0 no effect, 100 complete control; for Plant response rating, Barnyardgrass: 500 g ai/ha, visual injury, 0 to 100 scale (0 no effect, 100 complete control)
Procedure, shortened: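 Weeds and crops in loam–sand blend were sprayed preemergence onto soil or postemergence at 2–10 cm (one- to two-leaf stage). Test chemicals were in a non-phytotoxic solvent with surfactant. After 10 days in the greenhouse, injury was rated visually against untreated controls on a 0 (no effect) to 100 (complete control) scale.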

Compound | Barnyardgrass plant response rating | Plant response rating, Barnyardgrass
CC(C)c1ncn(-c2cc(C(=O)N3C[C@H](C)Oc4c(Cl)cccc43)c3ccccc3c2)n1 [Compound 145] | 20 | 20
CC(C)c1ncn(-c2cc(C(=O)N3C[C@H](C)Oc4c(Cl)cccc43)c3ccccc3c2)n1 [Compound 146] | 20 | 20
C[C@H]1CN(C(=S)c2cccc(-n3cncn3)c2)c2cccc(Cl)c2O1 [Compound 139, [(2S)-8-Chloro-2,3-dihydro-2-methyl-4H-1,4-benzoxazin-4-yl][3-(1H-1,2,4-triazol-1-yl)phenyl]methanethione] | 20 | 70
Cc1cccc2c1O[C@@H](C)CN2C(=O)c1cccc(-n2cnc(C3COC3)n2)c1 [Compound 109, [(2S)-2,3-Dihydro-2,8-dimethyl-4H-1,4-benzoxazin-4-yl][3-[3-(3-oxetanyl)-1H-1,2,4-triazol-1-yl]phenyl]methanone] | 50 | 90
CC(C)c1ncn(-c2cc3c(c(C(=O)N4C[C@H](C)Oc5c(Cl)cccc54)c2)OCC3)n1 [Compound 147] | 10 | 70
